# In patent US7888386B2, “3-(phenoxyphenylmethyl)pyrrolidine compounds” (Theravance, Inc., priority 2008, dated 2011):
# Like-named read-outs stand apart in the source and are kept apart here.
# Key:
# hSERT = target: T1, hSERT (Homo sapiens, UniProt P31645); experiment: hSERT binding assay (Assay 1)
# T1 construct: expressed in transfected cells; host or cells: HEK-293 derived cell line, stably transfected; membrane preparation
# Experimental: (§1) Membrane radioligand binding assays were used to measure competitive inhibition of labeled ligand (^3H-citalopram or ^3H-nisoxetine or ^3H-WIN35428) binding to membranes prepared from cells expressing the respective human recombinant transporter (hSERT or hNET or hDAT) in order to determine the pKi values of test compounds at the transporters.
# (§2) Recombinant human embryonic kidney (HEK-293) derived cell lines stably transfected with hSERT or hNET, respectively, were grown in DMEM medium supplemented with 10% dialyzed FBS (for hSERT) or FBS (for hNET), 100 μg/ml penicillin, 100 μg/ml streptomycin, 2 mM L-glutamine and 250 μg/ml of the aminoglycoside antibiotic G418, in a 5% CO2 humidified incubator at 37° C. When cultures reached 80% confluence, the cells were washed thoroughly in PBS (without Ca^2+ and Mg^2+) and lifted with 5 mM EDTA in PBS. Cells were pelleted by centrifugation, resuspended in lysis buffer (10 mM Tris-HCl, pH 7.5 containing 1 mM EDTA), homogenized, pelleted by centrifugation, then resuspended in 50 mM Tris-HCl, pH 7.5 and 10% sucrose at 4° C. Protein concentration of the membrane suspension was determined using a Bio-Rad Bradford Protein Assay kit. Membranes were snap frozen and stored at −80° C. Chinese hamster ovary membranes expressing hDAT (CHO-DAT) were purchased from PerkinElmer and stored at −80° C.
# (§3) Stock solutions (10 mM in DMSO) of test compound were prepared and serial dilutions made using Dilution Buffer (50 mM Tris-HCl, 120 mM NaCl, 5 mM KCl, pH 7.4, 0.1% BSA, 400 μM ascorbic acid).
# (§4) Following a 60 minute incubation at 22° C. (or a period sufficient to reach equilibrium), the membranes were harvested by rapid filtration over a 96-well UniFilter GF/B plate, pretreated with 0.3% polyethyleneimine, and washed 6 times with 300 μl wash buffer (50 mM Tris-HCl, 0.9% NaCl, pH 7.5 at 4° C.). Plates were dried overnight at room temperature, ˜45 μl of MicroScint™-20 (Perkin Elmer) added and bound radioactivity quantitated via liquid scintillation spectroscopy. Competitive inhibition curves and saturation isotherms were analyzed using GraphPad Prism Software package (GraphPad Software, Inc., San Diego, Calif.). IC50 values were generated from concentration response curves using the Sigmoidal Dose Response (variable slope) algorithm in Prism GraphPad.
# hNET = target: T2, hNET (Homo sapiens, UniProt P23975); experiment: hNET binding assay (Assay 1); settings: read-out: NET pKi (converted)
# T2 construct: expressed in transfected cells; host or cells: HEK-293 derived cell line, stably transfected; membrane preparation
# T2 sequence (P23975 whole entry): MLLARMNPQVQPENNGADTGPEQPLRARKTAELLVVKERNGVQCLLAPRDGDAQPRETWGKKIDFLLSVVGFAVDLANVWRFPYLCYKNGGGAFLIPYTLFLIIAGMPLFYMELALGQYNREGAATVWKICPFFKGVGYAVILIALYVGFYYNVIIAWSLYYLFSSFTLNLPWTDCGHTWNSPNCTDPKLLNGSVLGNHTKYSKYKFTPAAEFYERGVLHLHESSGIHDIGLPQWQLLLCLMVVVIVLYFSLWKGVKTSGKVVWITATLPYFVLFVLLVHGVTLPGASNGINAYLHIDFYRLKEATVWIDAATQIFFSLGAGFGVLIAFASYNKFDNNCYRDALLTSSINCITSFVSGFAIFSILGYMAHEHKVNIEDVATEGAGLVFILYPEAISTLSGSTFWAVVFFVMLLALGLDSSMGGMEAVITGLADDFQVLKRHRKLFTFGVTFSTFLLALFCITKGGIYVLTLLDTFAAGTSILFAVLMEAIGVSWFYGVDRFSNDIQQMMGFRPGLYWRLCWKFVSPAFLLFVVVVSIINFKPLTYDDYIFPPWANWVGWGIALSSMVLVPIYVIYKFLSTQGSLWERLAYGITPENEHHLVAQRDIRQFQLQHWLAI
# Experimental: as §1, §2, §3, §4
# [1] = ratio of binding Ki at hSERT to Ki at hNET, rounded off to the nearest tenth
# [2] = membranes of HEK-293 cells expressing hNET, 1.0 nM 3H-nisoxetine
# [3] = ratio of SERT Ki to NET Ki (binding)
# [4] = ratio of SERT Ki to NET Ki from binding assays
# T1 sequence (P31645 whole entry): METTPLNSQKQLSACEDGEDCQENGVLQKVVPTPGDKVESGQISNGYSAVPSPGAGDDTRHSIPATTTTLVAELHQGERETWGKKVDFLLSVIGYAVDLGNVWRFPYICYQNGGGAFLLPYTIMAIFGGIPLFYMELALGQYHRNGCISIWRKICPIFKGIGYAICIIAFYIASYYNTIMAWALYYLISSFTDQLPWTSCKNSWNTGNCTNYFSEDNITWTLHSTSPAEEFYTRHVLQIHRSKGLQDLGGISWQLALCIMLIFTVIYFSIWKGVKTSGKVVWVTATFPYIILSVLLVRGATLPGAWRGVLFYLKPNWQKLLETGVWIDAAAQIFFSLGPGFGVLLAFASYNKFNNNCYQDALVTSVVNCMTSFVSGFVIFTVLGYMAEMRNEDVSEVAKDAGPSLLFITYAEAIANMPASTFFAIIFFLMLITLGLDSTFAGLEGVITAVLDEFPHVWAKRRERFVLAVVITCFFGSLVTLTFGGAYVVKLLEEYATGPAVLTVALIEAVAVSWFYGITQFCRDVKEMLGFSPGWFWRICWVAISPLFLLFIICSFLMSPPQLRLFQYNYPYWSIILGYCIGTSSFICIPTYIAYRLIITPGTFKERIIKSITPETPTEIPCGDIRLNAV
smiles,measurement,setting,value
COc1ccccc1OC(c1cccc(CO)c1)C1CCNC1 (stereo not shown) [Compound 20-26],SERT Ki/NET Ki,hSERT; [1],10
same,Ki,hNET; [2],3.98 nM
Cc1ccc(Cl)c(OC(c2ccccc2)C2CCNC2)c1Cl (stereo not shown) [40-33],SERT Ki/NET Ki,hSERT; [3],3.2
Fc1cc(F)cc(C(Oc2cc(Cl)ccc2F)C2CCNC2)c1 (stereo not shown) [30-2],SERT Ki/NET Ki,hSERT; [4],25
same,Ki,hNET; hNET binding assay,0.794 nM
Fc1cc(F)cc(C(Oc2cc(F)c(F)cc2F)C2CCNC2)c1 (stereo not shown) [43-1],SERT Ki/NET Ki,hSERT; [3],32
same,Ki,hNET; hNET binding,2 nM
Cc1cccc(OC(c2ccccc2)C2CCNC2)c1 (stereo not shown) [Compound 21-7],SERT Ki/NET Ki,hSERT; [1],0.5
same,Ki,hNET; [2],3.98 nM
COc1ccccc1OC(c1ccccc1Cl)C1CCNC1 (stereo not shown) [Compound 20-16],SERT Ki/NET Ki,hSERT; [1],4
same,Ki,hNET; [2],1.26 nM
Fc1cc(F)cc(C(Oc2cc(Cl)cc(Cl)c2Cl)C2CCNC2)c1 (stereo not shown) [39-5],SERT Ki/NET Ki,hSERT; [3],0.2
same,Ki,hNET; hNET binding,3.16 nM
c1ccc(COc2ccccc2OC(c2ccccc2)C2CCNC2)cc1 (stereo not shown) [Compound 19-23],SERT Ki/NET Ki,hSERT; [1],3.2
Cc1ccc(OC(c2ccccc2)C2CCNC2)c([N+](=O)[O-])c1 (stereo not shown) [27-33],SERT Ki/NET Ki,hSERT; [4],1.6
Fc1cc(Cl)cc(OC(c2ccccc2)C2CCNC2)c1 (stereo not shown) [34-4],SERT Ki/NET Ki,hSERT; [4],0.3
Cc1ccc(OC(c2ccccc2)C2CCNC2)cc1F (stereo not shown) [33-3],SERT Ki/NET Ki,hSERT; [4],0.3
Fc1cc(F)cc(C(Oc2c(Cl)ccc(Cl)c2Cl)C2CCNC2)c1 (stereo not shown) [41-13],SERT Ki/NET Ki,hSERT; [3],2
Cc1cccc(Cl)c1OC(c1ccccc1)C1CCNC1 (stereo not shown) [31-13],SERT Ki/NET Ki,hSERT; [4],0.6
Fc1cc(F)cc(C(Oc2cc(Cl)ccc2F)C2CCNC2)c1 (stereo not shown) [32-2],SERT Ki/NET Ki,hSERT; [4],2.5
Fc1cc(F)cc([C@H](Oc2cc(Cl)ccc2Cl)[C@H]2CCNC2)c1 [32-25],SERT Ki/NET Ki,hSERT; [4],25
COc1ccc(C)cc1OC(c1ccccc1)C1CCNC1 (stereo not shown) [29-27],SERT Ki/NET Ki,hSERT; [4],2
Fc1cc(F)cc(C(Oc2cc(Cl)cc(Cl)c2)C2CCNC2)c1 (stereo not shown) [35-16],SERT Ki/NET Ki,hSERT; [3],0.5
NC(=O)c1cccc([C@H](Oc2cc(Cl)ccc2Cl)[C@H]2CCNC2)c1 [32-17],SERT Ki/NET Ki,hSERT; [4],2
Cc1ccc(Cl)cc1OC(c1ccccc1)C1CCNC1 (stereo not shown) [29-18],SERT Ki/NET Ki,hSERT; [4],0.1
Cc1ccc(Cl)c(OC(c2ccccc2)C2CCNC2)c1Cl (stereo not shown) [40-34],SERT Ki/NET Ki,hSERT; [3],0.1
N#Cc1cccc([C@H](Oc2c(F)cc(F)cc2F)[C@H]2CCNC2)c1 [45-3],SERT Ki/NET Ki,"hSERT; ratio of binding Ki at SERT to Ki at NET, the tables list only compounds with a ratio in the range 0.1-100",3.2
Fc1c(Cl)cccc1OC(c1ccccc1)C1CCNC1 (stereo not shown) [Compound 25-4],SERT Ki/NET Ki,hSERT; [1],5
Fc1cc(F)cc(C(Oc2cc(Cl)ccc2Cl)C2CCNC2)c1 (stereo not shown) [32-24],SERT Ki/NET Ki,hSERT; [4],7.9
"c1ccc(OC(c2ccccc2)C2CCNC2)cc1 (stereo not shown) [Ex. 17-1, 3-(Phenoxyphenylmethyl)pyrrolidine]",Ki,hNET; [2],6.31 nM
COc1cccc(C(Oc2cc(Cl)ccc2Cl)C2CCNC2)c1 (stereo not shown) [32-13],SERT Ki/NET Ki,hSERT; [4],0.3
Clc1ccc(Cl)c(OC(c2ccccc2Cl)C2CCNC2)c1 (stereo not shown) [32-7],SERT Ki/NET Ki,hSERT; [4],0.6
Cc1ccc(Cl)c(OC(c2ccccc2)C2CCNC2)c1Cl (stereo not shown) [40-32],SERT Ki/NET Ki,hSERT; [3],1
FC(F)(F)c1cc(Cl)ccc1OC(c1ccccc1)C1CCNC1 (stereo not shown) [27-21],SERT Ki/NET Ki,hSERT; [4],0.6
Fc1ccc(Cl)c(O[C@H](c2ccccc2)[C@@H]2CCNC2)c1 [29-13],SERT Ki/NET Ki,hSERT; [4],0.2
COc1ccc(F)c(OC(c2ccccc2Cl)C2CCNC2)c1 (stereo not shown) [32-3],SERT Ki/NET Ki,hSERT; [4],4
N#Cc1cccc(C(Oc2cc(Cl)ccc2Cl)C2CCNC2)c1 (stereo not shown) [32-15],SERT Ki/NET Ki,hSERT; [4],13
Cc1cc(F)cc(C(Oc2c(Cl)ccc(C)c2Cl)C2CCNC2)c1 (stereo not shown) [41-22],SERT Ki/NET Ki,hSERT; [3],0.3
Fc1ccc(C(Oc2cc(Cl)ccc2Cl)C2CCNC2)cc1 (stereo not shown) [32-11],SERT Ki/NET Ki,hSERT; [4],4
NC(=O)c1cccc(C(Oc2c(F)ccc(F)c2Cl)C2CCNC2)c1 (stereo not shown) [41-38],SERT Ki/NET Ki,hSERT; [3],0.1
